The subject of data set [1] is monkey hepatocytes. Description: Metabolism and metabolite formation in hepatocytes. To be noted: cynomolgus monkey hepatocytes, 10 µM BPI-460372, 4 h incubation. In kind it is in vitro ADME, cynomolgus monkey. An excerpt: (§1) All the samples were duplicates.
Data set [2] relates to dog hepatocytes. Briefly: Metabolism and metabolite formation in hepatocytes. In kind it is in vitro ADME, beagle dog. To be noted: beagle dog hepatocytes, 10 µM BPI-460372, 4 h incubation.
Description: as §1

The test system of data set [3] is rat hepatocytes. Description: Metabolism and metabolite formation in hepatocytes. To be noted: SD rat hepatocytes, 10 µM BPI-460372, 4 h incubation. In kind it is in vitro ADME, SD rat.
Description: as §1

In data set [4] the test system is mouse hepatocytes. Description: Metabolism and metabolite formation in hepatocytes. The format is in vitro ADME, ICR mouse. The conditions noted are these: ICR mouse hepatocytes, 10 µM BPI-460372, 4 h incubation.
Description: as §1

Data set [5] can be described thus: Metabolite identification in rat plasma, urine, feces and bile. In kind it is in vivo, SD rats. The conditions noted are these: for Relative abundance of MS peak areas, Rat Bile 0-48 h / Relative abundance of MS peak areas, Rat Feces 0-48 h / Relative abundance of MS peak areas, Rat Urine 0-48 h: oral 6 mg/kg BPI-460372, average of male and female pooled samples; for Relative abundance of MS peak areas, Rat Plasma 0-24 h: oral 12 mg/kg BPI-460372, average of male and female pooled samples. How it is done: (§2) The plasma samples were acquired from SD rats (n=6, 3 female and 3 male) and beagle dogs (n=6, 3 female and 3 male) after administration of 12 mg/kg and 8 mg/kg of BPI-460372, respectively. The rat urine, feces, and bile samples were acquired in SD rats after administration of 6 mg/kg of BPI-460372.
(§3) Equal volume from each rat was pooled together to get 1 male and 1 female 0-24 h plasma samples. An equal percentage by volume of individual urine sample (0-8, 8-24, and 24-48 h) from 3 female and 3 male rats was pooled by time interval across rats, respectively, resulting in two pooled urine samples (1 male and 1 female). An equal percentage by weight of individual feces samples (0-8, 8-24, and 24-48 h) was pooled by time interval across female and male rats, resulting in two pooled fecal samples. An equal percentage by volume of individual bile samples (0-4, 4-8, 8-24, and 24-48 h) was pooled by time interval across female and male rats, resulting in two pooled bile samples. […] Equal volumes from 3 female and 3 male rats were pooled together to get two 0-48 h plasma samples. For blank samples of plasma, urine, and bile, equal volume was pooled across subjects. For a blank sample of feces, equal weight was pooled across rats.
(§4) The pooled plasma, feces, and bile samples were extracted by adding 3-fold volume of acetonitrile, and the mixture was vortexed (1 min) and sonicated (1 min) before centrifugation (7220 g, 5 min). The pooled urine samples were centrifuged (7220 g, 5 min). Then the supernatant was transferred into a clean tube and evaporated to dryness under the nitrogen stream. The residues were redissolved with an appropriate volume of acetonitrile/water (20: 80, v: v). After centrifugation, the redissolved solution was transferred into an HPLC vial for UHPLC-Orbitrap-HRMS (15000 g, 10 min, 4°C).

Data set [6] is described as follows: Metabolite identification in dog plasma. The format is in vivo, beagle dogs. To be noted: oral 8 mg/kg BPI-460372, average of male and female pooled samples. How it is done:
as §2, §3, §4

In data set [7] the test system is TEAD proteins. Description: Covalent binding to TEAD proteins (in vitro). The conditions noted are these: in vitro studies.
Data set [8] deals with TEAD palmitoylation. Description: Inhibition of TEAD palmitoylation (in vitro). In kind it is biochemical. The conditions noted are these: in vitro studies.
Data set [9] concerns human hepatocytes. Description: Metabolism and metabolite formation in hepatocytes. To be noted: human hepatocytes, 10 µM BPI-460372, 4 h incubation.
Description: 10 µM BPI-460372 was incubated in five species (human, cynomolgus monkey, beagle dog, SD rat, and ICR mouse) hepatocytes (1 × 10^6 cells·min^-1) at 37 °C for 4 h. 7-EC, as positive control, was incubated for 0 h and 4 h. For blank control, hepatocytes were inactivated by adding ice-cold acetonitrile, and then the BPI-460372 solution was added. All the samples were duplicates. Incubations were stopped using the same volume of cold acetonitrile. The tube was vortexed, and the duplicate samples were combined. Metabolite profiling and identification of BPI-460372 were conducted by using UHPLC-Orbitrap-HRMS. The samples of 7-EC were analyzed by LC-MS/MS and then semi-quantified using the peak area ratio of analyte versus IS.
For hepatocyte metabolite identification, the different metabolites of BPI-460372 were detected using an ACQUITY UPLC HSS T3 column (1.8 µm, 100 mm × 2.1 mm) and ACQUITY UPLC BEH C18 column (1.7 µm, 100 mm × 2.1 mm) for rat and dog metabolite identification. The mobile phase contained a mixture of 0.1% formic acid in water (A) and 0.1% formic acid in acetonitrile (B). The gradient elution program was as follows: 0.0-1.0 min, 5% B; 1.0-7.0 min, 5%-30% B; 7.0-12.0 min, 30%-80% B; 12.0-16.0 min, 80%-95% B; 16.0-18.0 min, 95% B; 18.0-18.1 min, 95%-5% B. Then, 5% B from 18.1 to 20.0 min was maintained for equilibration. The flow rate was set to 0.5 mL/min, and the column temperature was kept at 40°C. Eluted fractions were monitored by a UV detector at 314 nm.
Data set [10] concerns cysteine S-conjugate β-lyase. Description: Effect of cysteine S-conjugate β-lyase inhibitor AOAA on the metabolism of BPI-460372 (rat urine). The conditions noted are these: for Area ratio in rat urine, mean (%CV): 20 mg/kg BPI-460372 + 100 mg/kg AOAA, once daily 21 days, urine 0-48 h on day 21; for Change of area ratio in rat urine on coadministration with AOAA: 20 mg/kg BPI-460372 with versus without 100 mg/kg AOAA.

In data set [11] the test system is CYP2C8. Briefly: Metabolic stability in HLMs with or without specific CYP inhibitor (quercetin). The format is in vitro ADME, human. To be noted: HLMs 1 mg protein/mL, substrate 1 μM, quercetin 20 µM. How it is done: (§5) Before starting the experiments, the HLMs were thawed gently on ice. Metabolic stability incubations were performed at 37 °C. The incubations contained 100 mM phosphate buffer saline (PBS, pH 7.4), HLMs (1 mg protein·mL^-1), dimethyl sulfoxide (DMSO, blank control) or a selective CYP inhibitor, and BPI-460372 or positive control substrates (final incubation concentration, 1 μM). The incubation process started with the addition of NADPH (1 mM final concentration) after a 5-minute preincubation period. The chemical inhibitors were as follows: a-naphthoflavone (2 µM) for CYP1A2, ticlopidine (20 µM) for 2B6, quercetin (20 µM) for CYP2C8, sulfaphenazole (20 µM) for CYP2C9, ticlopidine (200 µM) for CYP2C19, quinidine (20 µM) for CYP2D6, and ketoconazole (20 µM) for CYP3A [9]. Aliquots were maintained in acetonitrile containing internal standard (IS) at various time points, such as 0 min, 5 min, 10 min, 20 min, 30 min, and 60 min. All incubations were performed in triplicate, and the concentration in the supernatant was determined by liquid chromatography-tandem mass spectrometry (LC-MS/MS).
(§6) The elimination rate constant k (min^-1) was obtained by linear regression from the natural logarithm of the […] of the parent drug and the incubation time. The inhibition rate was calculated using equation 1 [10]: […]

The target of data set [12] is T1, CYP1A2 (Homo sapiens, UniProt P05177).
T1 sequence (P05177 1-516): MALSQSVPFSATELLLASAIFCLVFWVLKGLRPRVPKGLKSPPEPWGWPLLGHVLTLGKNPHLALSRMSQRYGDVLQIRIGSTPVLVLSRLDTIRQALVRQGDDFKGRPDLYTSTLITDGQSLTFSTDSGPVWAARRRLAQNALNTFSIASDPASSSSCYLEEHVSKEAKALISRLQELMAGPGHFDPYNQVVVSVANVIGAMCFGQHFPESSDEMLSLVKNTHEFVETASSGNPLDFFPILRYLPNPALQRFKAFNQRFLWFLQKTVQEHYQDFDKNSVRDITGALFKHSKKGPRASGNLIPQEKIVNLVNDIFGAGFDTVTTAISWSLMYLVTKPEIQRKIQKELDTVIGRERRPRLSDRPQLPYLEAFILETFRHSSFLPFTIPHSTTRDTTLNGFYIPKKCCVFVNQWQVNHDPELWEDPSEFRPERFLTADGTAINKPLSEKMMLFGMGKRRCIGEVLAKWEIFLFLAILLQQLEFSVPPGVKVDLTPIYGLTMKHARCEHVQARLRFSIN
Description: Metabolic stability in HLMs with or without specific CYP inhibitor (α-naphthoflavone). Set-up: HLMs (1 mg protein·mL^-1); tissue BioIVT; host or cells: pooled human liver microsomes. To be noted: HLMs 1 mg protein/mL, substrate 1 μM, α-naphthoflavone 2 µM. The format is in vitro ADME. How it is done: as §5, §6

The values that follow come from publication PMC12376128, “In vitro and In Vivo Drug Metabolism Analysis of BPI-460372 - A Covalent TEAD1/3/4 Inhibitor” (Current Drug Metabolism, 2025).

Turning to `O=C(C(O)CO)N1CC(n2c(=O)n(-c3ccc(C(F)(F)F)cc3)c3nccnc32)C1` (centres unmarked) [M423 (BPI-460456)], the “UV (314 nm) Peak Areas Relative Abundance” value in data set [1] was 2.01%; in data set [2], “+”; in data set [3] it was “+”; in data set [4] it was “+”; in [9], 2.36%. Further, the “Relative abundance of MS peak areas, Rat Bile 0-48 h” value (“Relative abundance … Rat Bile 0-48 h” below) in [5] is 0.58%. Moreover, the “Relative abundance of MS peak areas, Rat Feces 0-48 h” value (shortened to “Relative abundance … Rat Feces 0-48 h”) in data set [5] was 9.07%. For the same compound, in data set [5], the “Relative abundance of MS peak areas, Rat Urine 0-48 h” value (from here on “Relative abundance … Rat Urine 0-48 h”) was found to be 17.63%. The “Relative abundance of MS peak areas, Rat Plasma 0-24 h” value in [5] was found to be 2.71%. Besides, in data set [6], the “Relative abundance of MS peak areas, Dog Plasma 0-48 h” value is reported as 40.81%. Moreover, the “Covalent binding to TEAD proteins” value in [7] is reported as “do not covalently bind”. Further, the “Activity: inhibition of TEAD palmitoylation” value in data set [8] is “inactive”. For the same compound, the “Area ratio in rat urine, mean (%CV)” value in data set [10] is recorded as 19.0 (57).

On to `NC(CSCC(F)C(=O)N1CC(n2c(=O)n(-c3ccc(C(F)(F)F)cc3)c3nccnc32)C1)C(=O)O` (centres unmarked) [M528], for which the “UV (314 nm) Peak Areas Relative Abundance” value in data set [1] is listed as 3.01%; in data set [2], 22.65%; in [3], 18.4%; in data set [4], 24.76%; in data set [9], 3.01%. Further, the “Relative abundance … Rat Bile 0-48 h” value in [5] is 43.88%. The “Relative abundance … Rat Feces 0-48 h” value in data set [5] is on record as 1.61%. For the same compound, the “Relative abundance … Rat Urine 0-48 h” value in data set [5] stood at 0.69%. Besides, in [5], the “Relative abundance of MS peak areas, Rat Plasma 0-24 h” value came to 1.53%. Also, in [6], the “Relative abundance of MS peak areas, Dog Plasma 0-48 h” value is on record as 7.65%. The “Area ratio in rat urine, mean (%CV)” value in [10] is 0.12 (37). For the same compound, the “Change of area ratio in rat urine on coadministration with AOAA” value in [10] is reported as “reduced”.

On to `O=c1n(-c2ccc(C(F)(F)F)cc2)c2nccnc2n1C1CN(C(O)C(O)CO)C1` (centres unmarked) [M425], for which, in data set [5], the “Relative abundance … Rat Feces 0-48 h” value is given as 2.79%; the “Relative abundance … Rat Urine 0-48 h” value stood at 2.52%; the “Relative abundance of MS peak areas, Rat Plasma 0-24 h” value stood at 0.14%. Moreover, the “Relative abundance of MS peak areas, Dog Plasma 0-48 h” value in data set [6] is 0.98%.

For `C=CC(=O)N1CC(n2c(=O)n(-c3ccc(C(F)(F)F)cc3)c3nccnc32)C1` [M389], in [5], the “Relative abundance … Rat Bile 0-48 h” value was 0.040%; the “Relative abundance … Rat Feces 0-48 h” value was determined as 16.59%; the “Relative abundance … Rat Urine 0-48 h” value is 0.050%; the “Relative abundance of MS peak areas, Rat Plasma 0-24 h” value was 0.67%. The “Relative abundance of MS peak areas, Dog Plasma 0-48 h” value in [6] came to 0.15%.

As to `CC(O)C(=O)N1CC(n2c(=O)n(-c3ccc(C(F)(F)F)cc3)c3nccnc32)C1` (centres unmarked) [M407 (BPI-460430)], the “UV (314 nm) Peak Areas Relative Abundance” value was 3.61% in data set [1]; “+” in data set [2]; 2.75% in data set [3]; 1.39% in data set [4]; “+” in [9]. Further, in [5], the “Relative abundance … Rat Bile 0-48 h” value worked out at 0.72%. Further, the “Relative abundance … Rat Feces 0-48 h” value in [5] was 5.94%. The “Relative abundance … Rat Urine 0-48 h” value in data set [5] is given as 1.02%. The “Relative abundance of MS peak areas, Rat Plasma 0-24 h” value in [5] was 16.39%. In addition, in data set [6], the “Relative abundance of MS peak areas, Dog Plasma 0-48 h” value is given as 6.23%. For the same compound, in data set [7], the “Covalent binding to TEAD proteins” value was “do not covalently bind”. For the same compound, the “Activity: inhibition of TEAD palmitoylation” value in data set [8] was “inactive”.

Regarding `CSCC(O)C(=O)N1CC(n2c(=O)n(-c3ccc(C(F)(F)F)cc3)c3nccnc32)C1` (centres unmarked) [M453], in data set [5], the “Relative abundance … Rat Feces 0-48 h” value was found to be 1.57%; the “Relative abundance … Rat Urine 0-48 h” value turned out to be 17.25%; the “Relative abundance of MS peak areas, Rat Plasma 0-24 h” value turned out to be 0.05%. The “Relative abundance of MS peak areas, Dog Plasma 0-48 h” value in data set [6] is reported as 3.58%. Moreover, in data set [10], the “Area ratio in rat urine, mean (%CV)” value is reported as 0.23 (23) and the “Change of area ratio in rat urine on coadministration with AOAA” value was “reduced”.

Regarding `CCC(=O)N1CC(n2c(=O)n(-c3ccc(C(F)(F)F)cc3)c3nccnc32)C1` [M391], in data set [5], the “Relative abundance … Rat Feces 0-48 h” value amounted to 21.50%; the “Relative abundance … Rat Urine 0-48 h” value came to 0.015%; the “Relative abundance of MS peak areas, Rat Plasma 0-24 h” value amounted to 0.35%. For the same compound, the “Relative abundance of MS peak areas, Dog Plasma 0-48 h” value in [6] was determined as 0.36%.

Regarding `CC(=O)O[C@H]1C(=O)[C@@]2(C)[C@H]([C@H](OC(=O)c3ccccc3)[C@]3(O)C[C@H](OC(=O)[C@H](O)[C@@H](NC(=O)c4ccccc4)c4ccccc4)C(C)=C1C3(C)C)[C@]1(OC(C)=O)CO[C@@H]1C[C@@H]2O` [Paclitaxel, reference compound], the “Inhibition Rate” value in data set [11] was 78.2%.

As for `CCOc1ccc(NC(C)=O)cc1` [Phenacetin, phenacetin, reference compound], the “Inhibition Rate” value in data set [12] is 79.2%.

On to `NCC(C(=O)O)n1c(=O)n(-c2ccc(C(F)(F)F)cc2)c2nccnc21` (centres unmarked) [M367], for which, in [5], the “Relative abundance … Rat Feces 0-48 h” value was determined as 2.77%; the “Relative abundance … Rat Urine 0-48 h” value was determined as 2.55%; the “Relative abundance of MS peak areas, Rat Plasma 0-24 h” value was found to be 0.065%. In [6], the “Relative abundance of MS peak areas, Dog Plasma 0-48 h” value is on record as 0.83%.
